For twelve compounds, IC50 results are on record in patent publication US6218393A, “Anthranilic acid derivatives as multi drug resistance modulators” (priority 1997, dated 2001).

For the assay, the system named is AR 1.0 cells. Put plainly: Drug accumulation assay: daunorubicin accumulation in AR 1.0 cells. It is filed as cell-based. To be noted: Mus musculus, 100% = accumulation with verapamil 100 μM, 1 hr, 37° C. On the procedure:
The EMT6 mouse mammary carcinoma cell line and the MDR resistant subline AR 1.0 were cultured in RPMI 1640 medium containing 10% foetal calf serum and 2 mM glutamine at 37° C. in 5% CO2. Cells were passaged between 1 in 200 and 1 in 2000 in the case of the parental cell line and between 1 in 20 and 1 in 200 in the case of the MDR resistant subline, after trypsinisation (0.25% trypsin, 0.2 gl^-1, EDTA).
AR 1.0 cells were seeded 48 hours prior to assay into 96 well opaque culture plates (Canberra Packard).
As a reminder, the IC50 is the concentration that gives 50% inhibition. Higher therefore signals lower potency. `COc1cc2c(cc1OC)CN(CCc1ccc(NC(=O)c3ccccc3NC(=O)c3cnccn3)c(C)c1)CC2` [compound 9658, Pyrazine-2-carboxylic acid (2-{4-[2-(6,7-dimethoxy-3,4-dihydro-1H-isoquinolin-2-yl)-ethyl]2-methyl-phenylcarbamoyl}-phenyl)-amide]: half-maximal inhibition (IC50) required 2.9 µM. The compound `COc1cc2c(cc1OC)CN(CCc1ccc(NC(=O)c3ccccc3NC(=O)c3cc4ccccc4[nH]3)cc1)CC2` [compound 9515, 1H-Indole-2-carboxylic acid (2-{4-[2-(6,7-dimethoxy-3,4-dihydro-1H-isoquinolin-2-yl)-ethyl}-phenylcarbamoyl}-phenyl)-amide] showed an IC50 of 1.2 µM. The figure for `COc1cc2c(cc1OC)CN(CCc1ccc(NC(=O)c3ccccc3NC(=O)c3cccc(C(F)(F)F)c3)cc1)CC2` [compound 9524] is 1 µM. The compound `O=C(Nc1ccccc1C(=O)Nc1ccc(CCN2CCc3ccc(Cl)c(Cl)c3C2)cc1)c1cnc2ccccc2c1` [compound 9629, Quinoline-3-carboxylic acid (2-{4-[2-(7,8-dichloro-3,4-dihydro-1H-isoquinolin-2-yl)-ethyl]-phenylcarbamoyl}-phenyl)-amide] yielded an IC50 of more than 10 µM. Regarding `COc1ccc(CN(C)CCc2ccc(NC(=O)c3ccc([N+](=O)[O-])cc3NC(=O)c3cnc4ccccc4c3)cc2)cc1OC` [compound 9677, Quinoline-3-carboxylic acid [2-(4-{2-[(3,4-dimethoxy-benzyl)-methyl-amino]-ethyl}-phenylcarbamoyl)-5-nitro-phenyl]-amide], the IC50 stood at 0.169 µM. Regarding `COc1cc2c(cc1OC)CN(CCc1ccc(NC(=O)c3ccccc3NC(=O)c3cc4ccccc4nc3Cl)cc1)CC2` [compound 9591, 2-Chloro-quinoline-3-carboxylic acid (2-{4-[2-(6,7-dimethoxy-3,4-dihydro-1H-isoquinolin-2-yl)-ethyl]-phenylcarbamoyl}-phenyl)-amide], half-maximal inhibition (IC50) required 0.425 µM. `COc1cc(CCN2CCc3cc(OC)c(OC)cc3C2)ccc1NC(=O)c1ccccc1NC(=O)c1cnc(C)cn1` [compound 9657, 5-Methyl-pyrazine-2-carboxylic acid (2-{4-[2-(6,7-dimethoxy-3,4-dihydro-1H-isoquinolin-2-yl)-ethyl]-2-methoxy-phenylcarbamoyl}-phenyl)-amide] came in with an IC50 of 0.343 µM. As to `COc1cc2c(cc1OC)CN(CC(C)c1ccc(NC(=O)c3ccccc3NC(=O)c3cnc4ccccc4c3)cc1)CC2` (stereo not drawn) [compound 9654, Quinoline-3-carboxylic acid (2-{4-[2-(6,7-dimethoxy-3,4-dihydro-1H-isoquinolin-2-yl)-1-methyl-ethyl]-phenylcarbamoyl}-phenyl)-amide], half-maximal inhibition (IC50) was put at 0.135 µM. As for `COc1cc2c(cc1OC)CN(CCNC(=O)c1ccc(Cl)cc1NC(=O)c1ccc(C(C)C)cc1)CC2` [compound 9350, 2-(4-Isopropyl-benzoylamino)-N-[2-(6,7-dimethoxy-3,4-dihydro-1H-isoquinolin-2-yl)-ethyl]-4-chioro-benzamide], inhibition was half-maximal at 0.8 µM (IC50). `COc1cc2c(cc1OC)CN(CCNC(=O)c1cc3ccccc3cc1NC(=O)c1ccc(C(C)C)cc1)CC2` [compound 9410, 3-(4-Isopropyl-benzoylamino)-naphthalene-2-carboxylic acid [2-(6,7-dimethoxy-3,4-dihydro-1H-isoquinolin-2-yl)-ethyl]-amide] came in with an IC50 of 3 µM. `COc1cc2c(cc1OC)CN(CCNC(=O)c1ccccc1NC(=O)c1ccccn1)CC2` [compound 9377, Pyridine-2-carboxylic acid {2-[2-(6,7-dimethoxy-3,4-dihydro-1H-isoquinolin-2-yl)-ethylcarbamoyl]-phenyl}-amide]: it took 5.5 µM to reach half-maximal inhibition (IC50).

`COc1cc2c(cc1OC)CN(CCc1ccc(NC(=O)c3ccccc3NC(=O)c3ccoc3)cc1)CC2` [compound 9526, Furan-3-carboxylic acid (2-{4-[2-(6,7-dimethoxy-3,4-dihydro-1H-isoquinolin-2-yl)-ethyl]-phenylcarbamoyl}-phenyl)-amide] returned an IC50 of 1.4 µM.
